Results published in ChEMBL document CHEMBL1201862, “PubChem BioAssay data set” (2004).
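A five-concentration, 48-hour dose response in 96-well plates underlies each endpoint, interpolated linearly between surrounding concentrations. The concentration for 50% growth inhibition is given as GI50.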 Activity calls are given as the source filed them. Cut-off read from the data, not from the text of the source: active = GI50 up to about 1.1 µM and inactive = higher.

What was measured:
Test in all cases: growth of human tumour cells (NCI), 48 h
[1] = test system: A498
[2] = test system: BT-549
[3] = test system: CCRF-CEM
[4] = test system: HCT-116
[5] = test system: HCT-15
[6] = test system: HT-29
[7] = test system: KM12
[8] = test system: MDA-N
[9] = test system: MOLT-4
[10] = test system: Malme-3M
[11] = test system: OVCAR-3
[12] = test system: OVCAR-8
[13] = test system: PC-3
[14] = test system: RPMI-8226
[15] = test system: RXF 393
[16] = test system: SF-268
[17] = test system: SK-MEL-2
[18] = test system: SNB-75
[19] = test system: TK-10

SMILES	GI50 [1]	GI50 [2]	GI50 [3]	GI50 [4]	GI50 [5]	GI50 [6]	GI50 [7]	GI50 [8]	GI50 [9]	GI50 [10]	GI50 [11]	GI50 [12]	GI50 [13]	GI50 [14]	GI50 [15]	GI50 [16]	GI50 [17]	GI50 [18]	GI50 [19]
O=[N+]([O-])C(/C(Cl)=C(\Cl)Br)=C(/Cl)SCc1ccccc1	8.04 µM (inactive)	2.56 µM (inactive)	0.507 µM (active)	2.48 µM (inactive)	2.9 µM	2.12 µM (inactive)	14.4 µM (inactive)	1.85 µM (inactive)	0.778 µM (active)	6.31 µM (inactive)	2.74 µM (inactive)	2.26 µM (inactive)	3.84 µM (inactive)	1.72 µM (inactive)	2.35 µM (inactive)	2.85 µM (inactive)	3.8 µM (inactive)	3.26 µM (inactive)	4.5 µM (inactive)
O=c1[nH]c(=O)n(C2C(CO)OC(CO)C2O)cc1F (stereo not given)	> 100 µM (inactive)	> 100 µM (inactive)	> 100 µM (inactive)	> 100 µM (inactive)	> 100 µM	> 100 µM (inactive)	> 100 µM (inactive)	> 100 µM (inactive)	> 100 µM (inactive)	> 100 µM (inactive)	> 100 µM (inactive)	> 100 µM (inactive)	> 100 µM (inactive)	> 100 µM (inactive)	> 100 µM (inactive)	> 100 µM (inactive)	> 100 µM (inactive)	> 100 µM (inactive)	> 100 µM (inactive)
COc1ccc2o/c(=N\c3ccc(F)cc3)c(C(N)=O)cc2c1	20 µM (inactive)	> 100 µM (inactive)	> 100 µM (inactive)	22.8 µM (inactive)	> 100 µM	> 100 µM (inactive)	> 100 µM (inactive)	> 100 µM (inactive)	> 100 µM (inactive)	47.1 µM (inactive)	49.9 µM (inactive)	17.8 µM (inactive)	> 100 µM (inactive)	> 100 µM (inactive)	12.4 µM (inactive)	43 µM (inactive)	22.8 µM (inactive)	12.6 µM (inactive)	21.6 µM (inactive)
O=C(CCCC1Cc2ccccc2C1=O)c1ccccc1 (stereo not given)	52.5 µM (inactive)	38.6 µM (inactive)	66.5 µM (inactive)	63.8 µM (inactive)	74.8 µM	42.2 µM (inactive)	96.4 µM (inactive)	66.2 µM (inactive)	33.3 µM (inactive)	44.2 µM (inactive)	47.4 µM (inactive)	79.6 µM (inactive)	35.1 µM (inactive)	46.9 µM (inactive)	52.5 µM (inactive)	> 100 µM (inactive)	> 100 µM (inactive)	70.5 µM (inactive)	84.5 µM (inactive)
Cc1cc(NS(=O)(=O)c2ccc(NC(=O)c3ccc4nc5ccccc5c(Nc5ccc(S(N)(=O)=O)cc5)c4c3)cc2)no1	55.5 µM (inactive)	28 µM (inactive)	22.6 µM (inactive)	24.8 µM (inactive)	19.2 µM	28.6 µM (inactive)	22.9 µM (inactive)	25.6 µM (inactive)	22.3 µM (inactive)	21.5 µM (inactive)	27.5 µM (inactive)	24.6 µM (inactive)	32.3 µM (inactive)	24.7 µM (inactive)	23.4 µM (inactive)	30.5 µM (inactive)	23.9 µM (inactive)	38.2 µM (inactive)	30.5 µM (inactive)
Nc1nn2c(C(Br)Br)cc(C(Br)Br)nc2c1[N+](=O)[O-]	2.18 µM (inactive)	0.766 µM (active)	0.161 µM (active)	0.634 µM (active)	1.07 µM	0.766 µM (active)	1.32 µM (inactive)	1.34 µM (inactive)	0.303 µM (active)	0.738 µM (active)	0.437 µM (active)	0.962 µM (active)	1.36 µM (inactive)	0.239 µM (active)	1.37 µM (inactive)	1.88 µM (inactive)	1.89 µM (inactive)	1.08 µM (active)	0.971 µM (active)
CCOC(=O)/C(C#N)=C(/NNc1ccccc1)c1ccncc1C(=O)O	> 100 µM (inactive)	> 100 µM (inactive)	> 38.2 µM (inactive)	> 100 µM (inactive)	> 22.7 µM	> 63.5 µM (inactive)	3.4 µM (inactive)	> 40.8 µM (inactive)	5.09 µM (inactive)	> 100 µM (inactive)	> 100 µM (inactive)	> 32.4 µM (inactive)	7.08 µM (inactive)	> 56.8 µM (inactive)	> 100 µM (inactive)	> 100 µM (inactive)	> 75.2 µM (inactive)	> 100 µM (inactive)	> 100 µM (inactive)
CNC(=O)N(C1=NCC(C)S1)c1ccc(C)c(C)c1 (stereo not given)	2.99 µM (inactive)	27.3 µM (inactive)	2.39 µM (inactive)	3.5 µM (inactive)	2.77 µM	2.52 µM (inactive)	3.15 µM (inactive)	0.443 µM (active)	4.81 µM (inactive)	4.15 µM (inactive)	2.4 µM (inactive)	4.74 µM (inactive)	3.98 µM (inactive)	2.81 µM (inactive)	2.46 µM (inactive)	4.37 µM (inactive)	1.87 µM (inactive)	1.31 µM (inactive)	9.04 µM (inactive)
CCOC(=O)C(C(N)=O)C1=Nc2cc([N+](=O)[O-])ccc2N/C1=C\C(=O)c1ccc(C)cc1 (stereo not given)	27.8 µM (inactive)	22.6 µM (inactive)	23.6 µM (inactive)	20.7 µM (inactive)	28.8 µM	33.1 µM (inactive)	31.2 µM (inactive)	43.3 µM (inactive)	0.522 µM (active)	35.3 µM (inactive)	15.8 µM (inactive)	19 µM (inactive)	20 µM (inactive)	18.1 µM (inactive)	17.6 µM (inactive)	15.1 µM (inactive)	20.9 µM (inactive)	16.1 µM (inactive)	14.8 µM (inactive)
CCc1nc(N)nc(N)c1-c1ccc(NCCN)c([N+](=O)[O-])c1	17.7 µM (inactive)	36.1 µM (inactive)	4.41 µM (inactive)	2.52 µM (inactive)	37 µM	6.11 µM (inactive)	17.7 µM (inactive)	6.92 µM (inactive)	7.16 µM (inactive)	13.7 µM (inactive)	21.8 µM (inactive)	7.67 µM (inactive)	6.53 µM (inactive)	29.6 µM (inactive)	39 µM (inactive)	7.1 µM (inactive)	46.7 µM (inactive)	19.7 µM (inactive)	> 88.7 µM (inactive)
CC(C)(C)C1CCC2c3c([nH]c4ccccc34)C3C(=O)N(c4cccc(Cl)c4)C(=O)C3C2C1 (stereo not given)	22.6 µM (inactive)	21.1 µM (inactive)	4.3 µM (inactive)	6.3 µM (inactive)	14.5 µM	6.38 µM (inactive)	5.01 µM (inactive)	11 µM (inactive)	1.85 µM (inactive)	16.6 µM (inactive)	15.1 µM (inactive)	17.7 µM (inactive)	7.1 µM (inactive)	9.27 µM (inactive)	8.36 µM (inactive)	13 µM (inactive)	17 µM (inactive)	14.1 µM (inactive)	16.8 µM (inactive)
CN(C)C1=Nc2ccccc2C(=S)N2CSCC12 (stereo not given)	> 100 µM (inactive)	78.5 µM (inactive)	16.4 µM (inactive)	> 100 µM (inactive)	34 µM	75.9 µM (inactive)	> 100 µM (inactive)	39.2 µM (inactive)	22.4 µM (inactive)	32.7 µM (inactive)	32.7 µM (inactive)	> 100 µM (inactive)	> 100 µM (inactive)	51.4 µM (inactive)	44.7 µM (inactive)	> 100 µM (inactive)	> 100 µM (inactive)	57.3 µM (inactive)	> 100 µM (inactive)
CCOC(=O)c1ccc(C(=O)/C(C(=O)OC(C)(C)C)=C2\CCCN2C)n1C	77.1 µM (inactive)	39.7 µM (inactive)	72.9 µM (inactive)	48.5 µM (inactive)	95.1 µM	45.2 µM (inactive)	55.3 µM (inactive)	58.3 µM (inactive)	33.8 µM (inactive)	> 100 µM (inactive)	37.8 µM (inactive)	80.4 µM (inactive)	73.1 µM (inactive)	69.7 µM (inactive)	> 100 µM (inactive)	> 100 µM (inactive)	> 100 µM (inactive)	15.9 µM (inactive)	> 100 µM (inactive)
CCn1c2ccc(C(=O)CCCN(C)C)cc2c2cc(C(=O)CCCN(C)C)ccc21	1.32 µM (inactive)	3.38 µM (inactive)	0.395 µM (active)	0.593 µM (active)	1.27 µM	0.509 µM (active)	1.18 µM (inactive)	2.05 µM (inactive)	0.256 µM (active)	2.81 µM (inactive)	1.27 µM (inactive)	0.533 µM (active)	1.3 µM (inactive)	1.77 µM (inactive)	1.68 µM (inactive)	1.75 µM (inactive)	2.25 µM (inactive)	2.97 µM (inactive)	1.98 µM (inactive)
N#Cc1cc2c(n(C3OC(CO)C(O)C(O)C3O)c1=S)CCC2 (stereo not given)	> 100 µM (inactive)	> 100 µM (inactive)	> 100 µM (inactive)	> 100 µM (inactive)	> 100 µM	> 100 µM (inactive)	> 100 µM (inactive)	> 100 µM (inactive)	> 100 µM (inactive)	> 100 µM (inactive)	> 100 µM (inactive)	> 100 µM (inactive)	> 100 µM (inactive)	> 100 µM (inactive)	> 100 µM (inactive)	> 100 µM (inactive)	> 100 µM (inactive)	97.3 µM (inactive)	> 100 µM (inactive)
